Test results as given in patent US7709498B2, “Quinoline derivatives as antibacterial agents” (Janssen Pharmaceutica N.V., priority 2005, dated 2010).
In brackets after ≈: the same amount, converted by molar mass.

How the values were obtained:
Type in all cases: cell-based
[1] = system: Pseudomonas aeruginosa (ATCC27853); assay: Microtitre plate assay, IC90 determination, PAE 27853; conditions: 90% inhibitory concentration for bacterial growth, 37° C., 24 hours, resazurin fluorescence
Experimental: (§1) The bacteria used in this study were grown overnight in flasks containing 100 ml Mueller-Hinton Broth (Becton Dickinson—cat. no. 275730) in sterile de-ionized water, with shaking, at 37° C. Stocks (0.5 ml/tube) were stored at −70° C. until use. Bacteria titrations were performed in microtiter plates to detect the TCID50, in which the TCID50 represents the dilution that gives rise to bacterial growth in 50% of inoculated cultures.
(§2) In general, an inoculum level of approximately 100 TCID50 was used for susceptibility testing.
(§3) Flat-bottom, sterile 96-well plastic microtiter plates were filled with 180 μl of sterile deionized water, supplemented with 0.25% BSA. Subsequently, stock solutions (7.8× final test concentration) of compounds were added in 45 μl volumes in column 2. Serial five-fold dilutions (45 μl in 180 μl) were made directly in the microtiter plates from column 2 to reach column 11. Untreated control samples with (column 1) and without (column 12) inoculum were included in each microtiter plate. Depending on the bacteria type, approximately 10 to 60 CFU per well of bacteria inoculum (100 TCID50), in a volume of 100 μl in 2.8× Mueller-Hinton broth medium, was added to the rows A to H, except column 12. The same volume of broth medium without inoculum was added to column 12 in row A to H. The cultures were incubated at 37° C. for 24 hours under a normal atmosphere (incubator with open air valve and continuous ventilation). At the end of incubation, one day after inoculation, the bacterial growth was quantitated fluorometrically. Therefore resazurin (0.6 mg/ml) was added in a volume of 20 μl to all wells 3 hours after inoculation, and the plates were re-incubated overnight. A change in colour from blue to pink indicated the growth of bacteria. The fluorescence was read in a computer-controlled fluorometer (Cytofluor Biosearch) at an excitation wavelength of 530 nm and an emission wavelength of 590 nm. The % growth inhibition achieved by the compounds was calculated according to standard methods. The IC90 (expressed in μg/ml) was defined as the 90% inhibitory concentration for bacterial growth.
(§4) BSU 3639 means Bacillus subtilis (ATCC43639); ECO 25922 means Escherichia coli (ATCC25922); EFA 14506 means Enterococcus faecalis (ATCC14506); EFA 29212 means Enterococcus faecalis (ATCC29212); LMO 49594 means Listeria monocytogenes (ATCC49594); PAE 27853 means Pseudomonas aeruginosa (ATCC27853); SMU 33402 means Streptococcus mutans (ATCC33402); SPN 6305 means Streptococcus pneumoniae (ATCC6305); SPY 8668 means Streptococcus pyogens (ATCC8668); STA 43300 means Staphylococcus aureus (ATCC43300); STA 25923 means Staphylococcus aureus (ATCC25923); STA 29213 means Staphylococcus aureus (ATCC29213); STA RMETH means methicilline resistant Staphylococcus aureus (MRSA) (a clinical isolate from the University of Antwerp). ATCC means American type tissue culture.

[2] = system: methicilline resistant Staphylococcus aureus (MRSA) (a clinical isolate from the University of Antwerp); assay: Microtitre plate assay, IC90 determination, STA RMETH; conditions: 90% inhibitory concentration for bacterial growth, 37° C., resazurin fluorescence; for IC90 (μg/ml) STA RMETH: 24 hours
Experimental: as §1, §2, §3, §4

[3] = system: Staphylococcus aureus (ATCC25923); assay: Microtitre plate assay, IC90 determination, STA 25923; conditions: 90% inhibitory concentration for bacterial growth, 37° C., resazurin fluorescence; for IC90 (μg/ml) STA 25923: 24 hours
Experimental: as §1, §2, §3, §4

[4] = system: Streptococcus pneumoniae (ATCC6305); assay: Microtitre plate assay, IC90 determination, SPN 6305; conditions: 90% inhibitory concentration for bacterial growth, 37° C., 24 hours, resazurin fluorescence
Experimental: as §1, §2, §3, §4

[5] = system: Enterococcus faecalis (ATCC14506); assay: Microtitre plate assay, IC90 determination, EFA 14506; conditions: 90% inhibitory concentration for bacterial growth, 37° C., 24 hours, resazurin fluorescence
Experimental: as §1, §2, §3, §4

[6] = system: Bacillus subtilis (ATCC43639); assay: Microtitre plate assay, IC90 determination, BSU 43639; conditions: 90% inhibitory concentration for bacterial growth, 37° C., 24 hours, resazurin fluorescence
Experimental: as §1, §2, §3, §4

[7] = system: Enterococcus faecalis (ATCC29212); assay: Microtitre plate assay, IC90 determination, EFA 29212; conditions: 90% inhibitory concentration for bacterial growth, 37° C., resazurin fluorescence; for IC90 (μg/ml) EFA 29212: 24 hours
Experimental: as §1, §2, §3, §4

[8] = system: Listeria monocytogenes (ATCC49594); assay: Microtitre plate assay, IC90 determination, LMO 49594; conditions: 90% inhibitory concentration for bacterial growth, 37° C., 24 hours, resazurin fluorescence
Experimental: as §1, §2, §3, §4

[9] = system: Streptococcus pyogens (ATCC8668); assay: Microtitre plate assay, IC90 determination, SPY 8668; conditions: 90% inhibitory concentration for bacterial growth, 37° C., 24 hours, resazurin fluorescence
Experimental: as §1, §2, §3, §4

[10] = system: Streptococcus mutans (ATCC33402); assay: Microtitre plate assay, IC90 determination, SMU 33402; conditions: 90% inhibitory concentration for bacterial growth, 37° C., 24 hours, resazurin fluorescence
Experimental: as §1, §2, §3, §4

[11] = system: Staphylococcus aureus (ATCC29213); assay: Microtitre plate assay, IC90 determination, STA 29213; conditions: 90% inhibitory concentration for bacterial growth, 37° C., 24 hours, resazurin fluorescence
Experimental: as §1, §2
Flat-bottom, sterile 96-well plastic microtiter plates were filled with 180 μl of sterile deionized water, supplemented with 0.25% BSA. Subsequently, stock solutions (7.8× final test concentration) of compounds were added in 45 μl volumes in column 2. Serial five-fold dilutions (45 μl in 180 μl) were made directly in the microtiter plates from column 2 to reach column 11. Untreated control samples with (column 1) and without (column 12) inoculum were included in each microtiter plate. […] At the end of incubation, one day after inoculation, the bacterial growth was quantitated fluorometrically. […] The fluorescence was read in a computer-controlled fluorometer (Cytofluor Biosearch) at an excitation wavelength of 530 nm and an emission wavelength of 590 nm. The % growth inhibition achieved by the compounds was calculated according to standard methods. […]

[12] = system: Staphylococcus aureus (ATCC43300); assay: Microtitre plate assay, IC90 determination, STA 43300; conditions: 90% inhibitory concentration for bacterial growth, 37° C., 24 hours, resazurin fluorescence
Experimental: as §1, §2, §3, §4

Row | SMILES | IC90 (μg/ml) PAE 27853 [1] [µg/mL] | IC90 (μg/ml) STA RMETH [2] [µg/mL] | IC90 (μg/ml) STA 25923 [3] [µg/mL] | IC90 (μg/ml) SPN 6305 [4] [µg/mL] | IC90 (μg/ml) EFA 14506 [5] [µg/mL] | IC90 (μg/ml) BSU 43639 [6] [µg/mL] | IC90 (μg/ml) EFA 29212 [7] [µg/mL] | IC90 (μg/ml) LMO 49594 [8] [µg/mL] | IC90 (μg/ml) SPY 8668 [9] [µg/mL] | IC90 (μg/ml) SMU 33402 [10] [µg/mL] | IC90 (μg/ml) STA 29213 [11] [µg/mL] | IC90 (μg/ml) STA 43300 [12] [µg/mL] | IC90 ([7]; Enterococcus faecalis, ATCC29212, 24 h, read-out: IC90 (μg/ml) EFA 29212) [µg/mL] | IC90 ([2]; Staphylococcus aureus, MRSA, 24 h, read-out: IC90 (μg/ml) STA RMETH) [µg/mL] | IC90 ([3]; Staphylococcus aureus, ATCC25923, 24 h, read-out: IC90 (μg/ml) STA 25923) [µg/mL]
1 | COc1nc2ccc(Br)cc2cc1C(c1ccccc1)C(O)(CCN1CCN(C)CC1)c1ccc2ccccc2c1 (racemic) [Compound 137] | 21.2 (≈ 34.7 µM) | 21.2 (≈ 34.7 µM) | 8.4 (≈ 13.8 µM) | 23.8 (≈ 39 µM) | – | – | – | – | – | – | – | – | – | – | –
2 | COc1nc2ccc(Br)cc2cc1C(c1ccccc1)C(O)(CCN1CCN(C)CC1)c1cc(Br)cc2ccccc12 (racemic) [Compound 151] | – | 15.4 (≈ 22.3 µM) | – | – | 15.4 (≈ 22.3 µM) | – | – | – | – | – | – | – | – | – | –
3 | COc1nc2ccc(Br)cc2cc1C(c1ccccc1)C(O)(CCN1CCN(C)CC1)c1ccc2cc(Br)ccc2c1 (racemic) [Compound 154] | – | 24.5 (≈ 35.5 µM) | 13.8 (≈ 20 µM) | – | – | 10.9 (≈ 15.8 µM) | 27.4 (≈ 39.7 µM) | 27.4 (≈ 39.7 µM) | 27.4 (≈ 39.7 µM) | – | – | – | – | – | –
4 | CCNCCC(O)(c1ccc(F)cc1F)C(c1ccccc1)c1cc2cc(Br)ccc2nc1OC (racemic) [Compound A] | – | – | 10.8 (≈ 19.9 µM) | 1.1 (≈ 2.03 µM) | – | – | – | – | 10.8 (≈ 19.9 µM) | 10.8 (≈ 19.9 µM) | 12.1 (≈ 22.3 µM) | – | – | – | –
5 | COc1nc2ccc(Br)cc2cc1C(c1ccccc1)C(O)(CCN(C)C)c1cccc2ccccc12 (centres unmarked) [Compound 13] | 2.2 (≈ 3.96 µM) | – | 11.1 (≈ 20 µM) | 2.8 (≈ 5.04 µM) | 11.1 (≈ 20 µM) | 11.1 (≈ 20 µM) | 8.8 (≈ 15.8 µM) | 11.1 (≈ 20 µM) | 8.8 (≈ 15.8 µM) | 3.5 (≈ 6.3 µM) | – | 11.1 (≈ 20 µM) | – | – | –
6 | COc1nc2ccc(Br)cc2cc1C(c1ccccc1)C(O)(CCN(C)C)c1cccc2ccccc12 (centres unmarked) [Compound 14] | 5.0 (≈ 9 µM) | – | – | 6.2 (≈ 11.2 µM) | 9.9 (≈ 17.8 µM) | 11.1 (≈ 20 µM) | – | 2.5 (≈ 4.5 µM) | 2.8 (≈ 5.04 µM) | 12.4 (≈ 22.3 µM) | – | 5.6 (≈ 10.1 µM) | 5 (≈ 9 µM) | 14 (≈ 25.2 µM) | 9.9 (≈ 17.8 µM)
